In patent US6828347B2, “Anti-viral multi-quinone compounds and regiospecific synthesis thereof” (Illinois Institute of Technology, priority 2002, dated 2004):

What was measured:
[1] = test system: retroviruses such as an HIV; conditions: as disclosed in the Boyd et al. Patents; cited from earlier work
uninfected CEM-T4 cells = assay: Toxicity to uninfected CEM-T4 cells (MTT assay); format: cell-based; conditions: day 8, MTT
Description: The assays desirably measure the concentration of the multi-quinone that allows for 50% survival of CEM-T4 cells infected with HIV-1 and the concentration of multi-quinone that kills 50% of uninfected CEM-T4 cells. One skilled in the art will appreciate that other known assays or tests for determining antiviral activity may be used.
The chlorohydroxybiquinone was tested for anti-HIV activity by the CEM-T4 cytoprotection assay which measures the inhibition of viral cytopathogenic effects. CEM-T4 cells used for the assay were maintained in RPMI-1640 culture medium containing 2 millimoles L-glutamine and 25 millimoles HEPES, and supplemented with 10% fetal bovine serum, 50 units/milliliter of penicillin G, and 50 microgram/milliliter streptomycin sulfate. The antiviral assays were performed in 96-well tissue culture plates. Cells were treated with polybrene at a concentration of 2 microgram/milliliter, and 1×10^4 cells were dispensed into each well. Appropriate concentrations of the biquinone were prepared in sterile DMSO and diluted with culture medium to the desired concentrations. Each dilution of test compound was added to multiple wells of cells, and the cells were incubated at 37° C. for one hour. Cells were then infected at a multiplicity of infection of 0.025 TCID50/cell by the addition of a diluted stock of the HTLV-IIIB strain of HIV-1. […]
Assay plates were incubated at 37° C. in a humidified 5% carbon dioxide (CO2) atmosphere and examined microscopically for toxicity and/or cytopathogenic effect. Once the viral cytopathogenic effect was maximal (the eighth day post-infection), the surviving cells in each test well were quantified using the MTT assay known in the art and described in Pauwels et al., “Rapid and Automated Tetrazolium-based Colorimetric Assay for the Detection of Anti-HIV Compounds,” J. Virol. […] When a dose-dependent effect for either anti-HIV activity or cytotoxicity was observed, values for the 50% effective dose were calculated using the dose-effect analysis software of Chou and Chou, available from Elsevier-Biosoft.

SMILES	antiviral activity (growth and replication of viruses) [1]	TD50 (concentration to cause reduction of cell growth by 50% of uninfected controls) (uninfected CEM-T4 cells) [µM]
CC(C)=CCC[C@]1(C)C=Cc2c(ccc3c2C(=O)C(O)=C(C2=C(C4=C(O)C(=O)c5c(ccc6c5C=C[C@@](C)(CCC=C(C)C)O6)C4=O)C(=O)c4c(ccc5c4C=C[C@@](C)(CCC=C(C)C)O5)C2=O)C3=O)O1 [conocurvone]	inhibit the growth and replication of viruses	–
CC(C)=CCC[C@]1(C)C=Cc2c(ccc3c2C(=O)C(O)=C(C2=C(Cl)C(=O)c4ccccc4C2=O)C3=O)O1 [chlorohydroxybiquinone, 8-(3-Chloro-1,4-dioxo-1,4-dihydronapthalen-2-yl)-9-hydroxy-3-methyl-3-(4-methyl-pent-3-enyl)-3H-benzo[f]chromene-7,10-dione]	–	2.7
COC1=C(C2=C(Cl)C(=O)c3ccccc3C2=O)C(=O)c2ccc3c(c2C1=O)C=C[C@@](C)(CCC=C(C)C)O3 [chloromethoxybiquinone, 8-(3-Chloro-1,4-dioxo-1,4-dihydro-napthalen-2-yl)-9-methoxy-3-methyl-3-(4-methyl-pent-3-enyl)-3H-benzo[f]chromene-7,10-dione]	–	5.4
COC1=C(C2=C(C3=C(O)C(=O)c4ccccc4C3=O)C(=O)c3ccccc3C2=O)C(=O)c2ccc3c(c2C1=O)C=CC(C)(C)O3 [trimeric quinone, 3-Hydroxy-3′-(9-methoxy-3,3-dimethyl-7,10-dioxo-7,10-dihydro-3H-benzo[f]chromen-8-yl)-2,2′-binaphthalenyl-1,4,1′,4′-tetraone]	–	17
